Experiments:
Assay type in all cases: binding
Conditions in all cases: Compound Concentration 10 µM
panel of 442 kinases [1] = target: T1, panel of 442 kinases (Homo sapiens, UniProt P07949)
T1 construct: purchased KINOMEscan
Source text: (§1) We assessed the selectivity of members of this scaffold using the KINOMEscan methodology across a near comprehensive panel of 442 kinases [[18,27]].

panel of 442 kinases [2] = target: T2, panel of 442 kinases (Homo sapiens, UniProt Q8TDX7)
T2 construct: purchased KINOMEscan
Source text: as §1

panel of 442 kinases [3] = target: T3, panel of 442 kinases (Homo sapiens, UniProt O95819)
T3 construct: purchased KINOMEscan
Source text: as §1

panel of 442 kinases [4] = target: T4, panel of 442 kinases (Homo sapiens, UniProt P08922)
T4 construct: purchased KINOMEscan
Source text: as §1

T4 sequence (P08922 28-2347): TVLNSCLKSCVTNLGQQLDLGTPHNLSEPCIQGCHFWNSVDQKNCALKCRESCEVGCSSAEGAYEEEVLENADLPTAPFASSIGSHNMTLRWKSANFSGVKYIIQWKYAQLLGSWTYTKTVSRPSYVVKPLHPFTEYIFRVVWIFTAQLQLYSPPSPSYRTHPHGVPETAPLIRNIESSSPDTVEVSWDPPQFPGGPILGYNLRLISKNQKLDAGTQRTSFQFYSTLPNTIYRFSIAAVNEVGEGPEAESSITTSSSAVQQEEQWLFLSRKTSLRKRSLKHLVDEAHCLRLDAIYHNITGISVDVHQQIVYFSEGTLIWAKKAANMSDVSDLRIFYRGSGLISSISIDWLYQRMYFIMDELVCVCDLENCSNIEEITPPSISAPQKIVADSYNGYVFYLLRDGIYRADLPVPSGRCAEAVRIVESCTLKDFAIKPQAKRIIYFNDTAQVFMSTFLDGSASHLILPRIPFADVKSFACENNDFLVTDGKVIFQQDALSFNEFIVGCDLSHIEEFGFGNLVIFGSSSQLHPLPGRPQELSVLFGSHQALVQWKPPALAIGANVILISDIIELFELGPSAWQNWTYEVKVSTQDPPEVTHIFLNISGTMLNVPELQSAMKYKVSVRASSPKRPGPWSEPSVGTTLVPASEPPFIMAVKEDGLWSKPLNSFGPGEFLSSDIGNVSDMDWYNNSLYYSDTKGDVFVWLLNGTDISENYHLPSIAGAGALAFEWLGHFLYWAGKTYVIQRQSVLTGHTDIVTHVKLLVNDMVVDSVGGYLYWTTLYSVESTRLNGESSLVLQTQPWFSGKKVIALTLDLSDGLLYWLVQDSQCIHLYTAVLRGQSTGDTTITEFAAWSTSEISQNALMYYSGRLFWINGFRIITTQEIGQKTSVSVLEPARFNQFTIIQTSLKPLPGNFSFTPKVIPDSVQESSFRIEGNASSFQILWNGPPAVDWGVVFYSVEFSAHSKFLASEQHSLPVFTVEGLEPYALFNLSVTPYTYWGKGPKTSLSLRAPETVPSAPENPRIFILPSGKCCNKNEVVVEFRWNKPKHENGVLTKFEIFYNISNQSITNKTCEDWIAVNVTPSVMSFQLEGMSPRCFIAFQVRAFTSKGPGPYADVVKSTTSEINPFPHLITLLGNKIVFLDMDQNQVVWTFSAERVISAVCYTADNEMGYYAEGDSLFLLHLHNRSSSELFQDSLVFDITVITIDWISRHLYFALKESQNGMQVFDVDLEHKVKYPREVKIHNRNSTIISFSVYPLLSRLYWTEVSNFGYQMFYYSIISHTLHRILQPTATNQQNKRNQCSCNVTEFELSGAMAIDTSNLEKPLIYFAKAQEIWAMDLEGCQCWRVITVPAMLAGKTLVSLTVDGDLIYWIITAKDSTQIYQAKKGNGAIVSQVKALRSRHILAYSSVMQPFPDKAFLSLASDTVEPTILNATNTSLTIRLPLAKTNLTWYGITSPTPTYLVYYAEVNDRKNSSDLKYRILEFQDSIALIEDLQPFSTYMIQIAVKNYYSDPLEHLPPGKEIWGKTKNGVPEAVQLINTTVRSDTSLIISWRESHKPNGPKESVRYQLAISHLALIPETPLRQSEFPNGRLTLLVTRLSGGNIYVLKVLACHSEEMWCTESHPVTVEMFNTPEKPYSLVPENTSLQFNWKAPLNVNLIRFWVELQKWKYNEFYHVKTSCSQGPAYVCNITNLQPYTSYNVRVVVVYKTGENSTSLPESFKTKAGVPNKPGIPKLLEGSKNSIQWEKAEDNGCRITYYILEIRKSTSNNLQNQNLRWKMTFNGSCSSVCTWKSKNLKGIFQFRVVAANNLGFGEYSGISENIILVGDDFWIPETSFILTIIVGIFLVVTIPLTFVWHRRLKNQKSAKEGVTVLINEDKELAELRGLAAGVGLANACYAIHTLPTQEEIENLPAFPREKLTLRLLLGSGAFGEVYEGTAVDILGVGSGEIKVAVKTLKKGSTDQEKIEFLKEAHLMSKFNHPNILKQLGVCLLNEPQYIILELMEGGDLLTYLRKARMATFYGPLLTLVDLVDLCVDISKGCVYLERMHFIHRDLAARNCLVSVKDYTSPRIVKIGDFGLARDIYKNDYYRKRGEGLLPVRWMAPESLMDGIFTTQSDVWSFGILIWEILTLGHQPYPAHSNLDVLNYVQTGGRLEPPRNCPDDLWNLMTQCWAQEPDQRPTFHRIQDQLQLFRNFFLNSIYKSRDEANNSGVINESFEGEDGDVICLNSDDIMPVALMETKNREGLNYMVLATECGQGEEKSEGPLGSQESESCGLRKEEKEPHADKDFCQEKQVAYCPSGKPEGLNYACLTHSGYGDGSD
T2 sequence (Q8TDX7 whole entry): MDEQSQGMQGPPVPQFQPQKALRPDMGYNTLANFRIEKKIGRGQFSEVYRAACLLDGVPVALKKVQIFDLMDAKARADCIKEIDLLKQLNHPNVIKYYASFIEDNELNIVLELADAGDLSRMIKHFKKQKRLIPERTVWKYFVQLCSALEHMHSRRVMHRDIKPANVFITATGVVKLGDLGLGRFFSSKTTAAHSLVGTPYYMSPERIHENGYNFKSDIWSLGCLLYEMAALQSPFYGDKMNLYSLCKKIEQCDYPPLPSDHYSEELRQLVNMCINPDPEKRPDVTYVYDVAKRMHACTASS
T3 sequence (O95819 whole entry): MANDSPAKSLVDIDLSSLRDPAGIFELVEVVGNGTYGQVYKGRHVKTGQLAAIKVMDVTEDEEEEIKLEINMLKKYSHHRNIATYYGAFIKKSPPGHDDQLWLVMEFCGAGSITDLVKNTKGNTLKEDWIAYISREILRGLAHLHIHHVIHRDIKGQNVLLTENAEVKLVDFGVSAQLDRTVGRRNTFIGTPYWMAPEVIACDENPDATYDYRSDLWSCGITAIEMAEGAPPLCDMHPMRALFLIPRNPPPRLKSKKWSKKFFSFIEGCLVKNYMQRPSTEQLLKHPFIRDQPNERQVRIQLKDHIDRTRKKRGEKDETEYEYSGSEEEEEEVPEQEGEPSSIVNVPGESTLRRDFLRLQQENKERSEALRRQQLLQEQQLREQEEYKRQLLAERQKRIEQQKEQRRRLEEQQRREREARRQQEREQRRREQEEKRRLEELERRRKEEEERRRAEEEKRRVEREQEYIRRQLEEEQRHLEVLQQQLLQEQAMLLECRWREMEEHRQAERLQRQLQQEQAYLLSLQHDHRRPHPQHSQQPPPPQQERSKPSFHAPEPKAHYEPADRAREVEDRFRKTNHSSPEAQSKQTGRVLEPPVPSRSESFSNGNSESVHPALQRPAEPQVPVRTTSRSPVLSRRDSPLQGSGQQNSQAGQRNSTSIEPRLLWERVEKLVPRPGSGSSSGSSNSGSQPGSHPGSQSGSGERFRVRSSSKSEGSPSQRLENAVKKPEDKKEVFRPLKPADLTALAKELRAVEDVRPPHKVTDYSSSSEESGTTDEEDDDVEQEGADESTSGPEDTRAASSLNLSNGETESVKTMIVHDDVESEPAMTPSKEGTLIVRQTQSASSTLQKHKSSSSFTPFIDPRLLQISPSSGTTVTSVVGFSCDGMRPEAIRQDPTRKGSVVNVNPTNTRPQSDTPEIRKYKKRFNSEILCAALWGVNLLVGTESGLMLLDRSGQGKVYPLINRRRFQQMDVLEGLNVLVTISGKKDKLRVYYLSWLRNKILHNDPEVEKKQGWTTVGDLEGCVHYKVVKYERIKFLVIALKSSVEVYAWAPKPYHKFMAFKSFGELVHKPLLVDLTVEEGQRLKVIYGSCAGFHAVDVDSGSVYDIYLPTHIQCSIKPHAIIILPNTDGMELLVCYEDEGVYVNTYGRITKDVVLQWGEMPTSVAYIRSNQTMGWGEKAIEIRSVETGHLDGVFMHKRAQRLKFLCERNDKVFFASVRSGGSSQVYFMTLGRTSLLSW
T1 sequence (P07949 29-1114): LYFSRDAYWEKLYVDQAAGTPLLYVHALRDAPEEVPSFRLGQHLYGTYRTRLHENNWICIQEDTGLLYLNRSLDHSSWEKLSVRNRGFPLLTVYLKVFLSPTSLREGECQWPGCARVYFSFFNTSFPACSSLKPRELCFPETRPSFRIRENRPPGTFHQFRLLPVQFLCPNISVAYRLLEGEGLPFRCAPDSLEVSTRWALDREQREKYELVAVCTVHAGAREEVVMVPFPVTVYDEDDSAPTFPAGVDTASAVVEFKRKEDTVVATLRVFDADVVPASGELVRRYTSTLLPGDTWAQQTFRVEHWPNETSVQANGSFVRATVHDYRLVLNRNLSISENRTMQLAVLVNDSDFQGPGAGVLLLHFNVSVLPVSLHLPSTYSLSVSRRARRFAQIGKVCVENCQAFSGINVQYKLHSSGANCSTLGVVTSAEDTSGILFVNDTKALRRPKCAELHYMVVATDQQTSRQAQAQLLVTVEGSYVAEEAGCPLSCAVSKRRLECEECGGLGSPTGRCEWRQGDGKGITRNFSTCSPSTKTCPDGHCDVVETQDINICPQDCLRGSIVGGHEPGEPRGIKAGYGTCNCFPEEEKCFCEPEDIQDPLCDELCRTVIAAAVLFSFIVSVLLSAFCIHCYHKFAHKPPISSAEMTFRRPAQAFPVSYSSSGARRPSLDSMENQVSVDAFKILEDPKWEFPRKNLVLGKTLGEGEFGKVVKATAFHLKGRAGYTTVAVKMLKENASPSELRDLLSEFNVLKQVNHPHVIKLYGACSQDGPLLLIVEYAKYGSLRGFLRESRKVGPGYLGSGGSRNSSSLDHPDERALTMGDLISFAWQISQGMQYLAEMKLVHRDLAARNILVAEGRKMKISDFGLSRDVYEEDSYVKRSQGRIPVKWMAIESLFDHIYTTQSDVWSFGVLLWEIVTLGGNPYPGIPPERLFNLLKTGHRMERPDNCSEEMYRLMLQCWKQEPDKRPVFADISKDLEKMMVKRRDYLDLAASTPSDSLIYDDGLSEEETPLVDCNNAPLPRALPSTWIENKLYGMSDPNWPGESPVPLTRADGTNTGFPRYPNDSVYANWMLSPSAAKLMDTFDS

| Compound | KINOMEscan: RET (panel of 442 kinases [1]) | KINOMEscan: NEK7 (panel of 442 kinases [2]) | KINOMEscan: MAP4K4 (panel of 442 kinases [3]) | KINOMEscan: ROS1 (panel of 442 kinases [4]) |
| --- | --- | --- | --- | --- |
| COc1cc(C(=O)N2CCC(N3CCN(C)CC3)CC2)ccc1Nc1ncc2c(n1)N(C1CCCC1)c1ccccc1C(=O)N2C [Compound 25, 11-cyclopentyl-2-((2-methoxy-4-(4-(4-methylpiperazin-1-yl)piperidine-1-carbonyl)phenyl)amino)-5-methyl-5H-benzo[e]pyrimido[5,4-b][1,4]diazepin-6(11H)-one] | 100 | 100 | 98 | 3.4 |
| CCOc1cc(C(=O)N2CCC(N3CCN(C)CC3)CC2)ccc1Nc1ncc2c(n1)N(C1CCCC1)c1ccccc1C(=O)N2C [Compound 26] | 100 | 100 | 96 | 20 |
| COc1cc(C(=O)N2CCC(N3CCN(C)CC3)CC2)ccc1Nc1ncc2c(n1)N1CCc3cccc(c31)C(=O)N2C [Compound 24] | – | – | 35 | 24 |
| COc1cc(C(=O)N2CCC(N3CCN(C)CC3)CC2)ccc1Nc1ncc2c(n1)N(C)c1ccccc1C(=O)N2C [15 (LRRK2-IN-1)] | 100 | 100 | 85 | 12 |

From publication PMC3914206
